Assay results published in ChEMBL document CHEMBL1201862, “PubChem BioAssay data set” (2004).
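Briefly, cells in 96-well plates were exposed to five compound concentrations for 48 h, and endpoints were estimated by linear interpolation. GI50 is the concentration that inhibits growth by half.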 Activity calls are given as the source filed them. Rule as the data show it: active = GI50 up to about 1.1 µM and inactive = higher.

Key:
Assay in all cases: growth of human tumour cells (NCI), 48 h
[1] = system: 786-0
[2] = system: A498
[3] = system: A549
[4] = system: ACHN
[5] = system: BT-549
[6] = system: CAKI-1
[7] = system: CCRF-CEM
[8] = system: COLO 205
[9] = system: DU-145
[10] = system: EKVX
[11] = system: HCT-116
[12] = system: HCT-15
[13] = system: HL-60
[14] = system: HOP-62
[15] = system: HOP-92
[16] = system: HT-29
[17] = system: Hs-578T
[18] = system: IGROV-1
[19] = system: K562
[20] = system: KM12
[21] = system: LOX IMVI
[22] = system: MCF7
[23] = system: MDA-MB-231
[24] = system: MDA-MB-435
[25] = system: MDA-N
[26] = system: MOLT-4
[27] = system: NCI-H226
[28] = system: NCI-H460
[29] = system: NCI-H522
[30] = system: NCI/ADR-RES
[31] = system: OVCAR-3
[32] = system: OVCAR-4
[33] = system: OVCAR-5
[34] = system: OVCAR-8
[35] = system: PC-3
[36] = system: RPMI-8226
[37] = system: RXF 393
[38] = system: SF-295
[39] = system: SF-539
[40] = system: SK-MEL-28
[41] = system: SK-MEL-2
[42] = system: SK-MEL-5
[43] = system: SK-OV-3
[44] = system: SN12C
[45] = system: SNB-19
[46] = system: SNB-75
[47] = system: SR
[48] = system: SW-620
[49] = system: T47D
[50] = system: TK-10
[51] = system: U-251
[52] = system: UACC-257
[53] = system: UACC-62
[54] = system: HCC 2998
[55] = system: M14
[56] = system: Malme-3M
[57] = system: NCI-H23
[58] = system: SF-268
[59] = system: UO-31

Measured: GI50

O=C(NCCCCCCO)c1cccc2cc3ccccc3nc12
17.9 µM: [12]
inactive: [1] 13.8 µM | [2] > 10 µM | [3] 15.5 µM | [4] 16.4 µM | [5] 16.2 µM | [6] 17.4 µM | [7] 32.3 µM | [8] 11.7 µM | [9] 17.7 µM | [10] 16.7 µM | [11] 17.2 µM | [13] 25.5 µM | [14] 17.9 µM | [15] 25.8 µM | [16] 17.5 µM | [17] 25.8 µM | [18] 17.7 µM | [19] 32.4 µM | [20] 18.7 µM | [21] 16.6 µM | [22] 20.4 µM | [23] 21 µM | [24] 21.7 µM | [25] 3.61 µM | [26] 16.7 µM | [27] 16.6 µM | [28] 16 µM | [29] 13.3 µM | [30] 36.5 µM | [31] 19.9 µM | [32] 18.9 µM | [33] 18.6 µM | [34] 32.3 µM | [35] 17 µM | [36] 16.7 µM | [37] 17.2 µM | [38] 16.7 µM | [39] 16.7 µM | [40] 20.6 µM | [41] 16.1 µM | [42] 18.1 µM | [43] 22.4 µM | [44] 24 µM | [45] 15.8 µM | [46] 21.9 µM | [47] > 10 µM | [48] 29.9 µM | [49] 10.8 µM | [50] 16.6 µM | [51] 38.9 µM | [52] 17.6 µM | [53] 16.5 µM

COc1cc(/C=N/N=C2NCCCN2)ccc1O
> 100 µM: [12]
inactive: [1] > 100 µM | [2] > 100 µM | [3] > 100 µM | [4] > 100 µM | [5] > 100 µM | [7] > 100 µM | [8] > 100 µM | [9] > 100 µM | [10] > 100 µM | [54] > 100 µM | [11] > 100 µM | [13] > 100 µM | [14] > 100 µM | [15] > 100 µM | [16] > 100 µM | [17] > 100 µM | [18] > 100 µM | [19] > 100 µM | [20] > 100 µM | [21] > 100 µM | [55] > 100 µM | [22] > 100 µM | [23] > 100 µM | [24] > 100 µM | [25] > 100 µM | [26] > 100 µM | [56] 95.7 µM | [27] > 100 µM | [57] > 100 µM | [28] 82.8 µM | [29] > 100 µM | [30] > 100 µM | [31] > 100 µM | [32] > 100 µM | [33] > 100 µM | [34] > 100 µM | [35] > 100 µM | [36] > 100 µM | [37] > 100 µM | [58] > 100 µM | [38] > 100 µM | [39] > 100 µM | [40] > 100 µM | [41] > 100 µM | [42] > 100 µM | [43] > 100 µM | [44] > 100 µM | [45] > 100 µM | [46] 30.3 µM | [47] > 100 µM | [48] > 100 µM | [49] > 100 µM | [50] > 100 µM | [51] > 100 µM | [52] > 100 µM | [53] > 100 µM | [59] > 100 µM

Cc1cc2c(c(/C=N/c3ccc([N+](=O)[O-])cc3)c1)OC1(C=C2)Oc2ccccc2C(=O)N1C (stereo not drawn)
inactive: [1] 22.6 µM | [2] 16.8 µM | [3] 28.2 µM | [4] 14.8 µM | [5] 19.6 µM | [6] 13.8 µM | [7] 12.2 µM | [8] 20 µM | [9] 22.3 µM | [10] 13.6 µM | [54] 19.8 µM | [11] 14.6 µM | [13] 23.2 µM | [14] 29.9 µM | [15] 24.1 µM | [16] 18.2 µM | [17] 27.2 µM | [18] 18.8 µM | [19] 19.2 µM | [20] 20 µM | [21] 12.8 µM | [55] 23.3 µM | [22] 17.6 µM | [23] 16.9 µM | [24] 31.2 µM | [25] 24.8 µM | [26] 4.94 µM | [27] 16 µM | [57] 18.2 µM | [28] 21.8 µM | [29] 21.5 µM | [30] 18.9 µM | [31] 29.4 µM | [32] 22.2 µM | [33] 28.6 µM | [34] 16.1 µM | [35] 18 µM | [36] 19.3 µM | [37] 18.5 µM | [58] 18.7 µM | [38] 24.4 µM | [40] 19.9 µM | [41] 24.8 µM | [42] 31.8 µM | [43] 22.2 µM | [44] 20.5 µM | [45] 34.4 µM | [46] 14.6 µM | [47] 12.3 µM | [48] 29.1 µM | [49] 7.89 µM | [50] 24.5 µM | [51] 21.7 µM | [52] 21.2 µM | [53] 17.2 µM | [59] 13.5 µM
17.9 µM: [12]

O=C1Nc2ccccc2/C1=N/N1C(=O)/C(=C/c2ccccc2S)N=C1c1ccccc1
inactive: [1] 79.8 µM | [2] > 100 µM | [3] 89.5 µM | [4] 92.3 µM | [5] 91 µM | [6] 91.6 µM | [7] 33.3 µM | [8] 76 µM | [9] > 100 µM | [10] 48.3 µM | [54] > 100 µM | [11] 99.8 µM | [13] 40.9 µM | [14] > 100 µM | [15] 77.6 µM | [16] > 100 µM | [17] > 100 µM | [18] 97.1 µM | [19] 27.9 µM | [20] 66.4 µM | [21] 44.9 µM | [55] > 100 µM | [22] 58.7 µM | [23] > 100 µM | [24] 42.3 µM | [25] 82.4 µM | [26] 19.5 µM | [56] > 100 µM | [57] 57.7 µM | [28] 73.6 µM | [29] 40.5 µM | [30] > 100 µM | [31] 33.4 µM | [32] 27 µM | [33] > 100 µM | [34] 36.2 µM | [35] 47.8 µM | [36] 12.6 µM | [37] 68.9 µM | [58] > 100 µM | [38] > 100 µM | [39] > 100 µM | [40] > 100 µM | [41] 42.4 µM | [42] 81.8 µM | [43] > 100 µM | [44] > 100 µM | [45] > 100 µM | [46] > 100 µM | [47] 21.3 µM | [48] 71.1 µM | [49] 25.5 µM | [50] > 100 µM | [51] 67.6 µM | [52] > 100 µM | [53] 90.6 µM | [59] 61.4 µM
83 µM: [12]

COc1ccc(OC)c(C2CCc3cnc4nc(N)nc(N)c4c3C2)c1 (stereo not drawn)
inactive: [1] 66.7 µM | [2] > 100 µM | [3] 59.6 µM | [4] > 100 µM | [5] > 100 µM | [6] > 100 µM | [7] > 100 µM | [8] > 100 µM | [9] > 100 µM | [10] > 100 µM | [54] > 100 µM | [11] 46 µM | [13] > 100 µM | [14] > 100 µM | [15] > 100 µM | [16] 70.1 µM | [17] > 100 µM | [18] 56 µM | [19] 46.9 µM | [20] > 100 µM | [21] 62.1 µM | [55] 92.3 µM | [22] > 100 µM | [23] > 100 µM | [24] 87.1 µM | [25] 55.5 µM | [26] > 100 µM | [56] > 100 µM | [57] 64.6 µM | [28] 57.3 µM | [29] > 100 µM | [30] > 100 µM | [31] > 100 µM | [32] > 100 µM | [33] > 100 µM | [34] 91.2 µM | [35] > 100 µM | [36] > 100 µM | [37] 33.6 µM | [58] > 100 µM | [38] 56.2 µM | [40] > 100 µM | [41] > 100 µM | [42] > 100 µM | [43] > 100 µM | [44] > 100 µM | [45] > 100 µM | [46] 19.7 µM | [47] 56.9 µM | [48] > 100 µM | [49] > 100 µM | [50] > 100 µM | [51] 48.8 µM | [52] 61.9 µM | [53] 74 µM | [59] 37.4 µM
> 100 µM: [12]
